34 molecules from patent publication US7763616B2, “Piperazine-piperidines with CXCR3 antagonist activity” (Schering Corporation, priority 2005, dated 2010) can be followed below.

In general, IC50 refers to the point on the concentration scale where inhibition reaches its midpoint.

For this assay, the target named is T1, human CXCR3 (N-delta 4) (Homo sapiens, UniProt P49682).
T1 construct: CD8 leader (N); Flag tag; expressed in transfected cells; membrane preparation
T1 sequence (P49682 5-368 limits assumed): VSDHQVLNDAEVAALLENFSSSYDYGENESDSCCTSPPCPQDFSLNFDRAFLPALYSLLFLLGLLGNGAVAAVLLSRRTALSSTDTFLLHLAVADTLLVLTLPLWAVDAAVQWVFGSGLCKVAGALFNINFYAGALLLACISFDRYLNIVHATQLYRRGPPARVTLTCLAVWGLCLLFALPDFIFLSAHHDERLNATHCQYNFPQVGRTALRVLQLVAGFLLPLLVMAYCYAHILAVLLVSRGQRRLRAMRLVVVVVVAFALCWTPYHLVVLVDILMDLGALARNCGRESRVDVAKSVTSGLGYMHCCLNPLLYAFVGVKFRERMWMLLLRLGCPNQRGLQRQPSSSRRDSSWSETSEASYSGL
Kind of assay: Human CXCR3 (N-delta 4) Scintillation Proximity Assay (SPA), [125I] IP-10 binding. The following applies: Ba/F3-hCXCR3 (N-delta 4) membranes, 25 pM [125I] IP-10. The source says:
The inventive compounds can readily be evaluated to determine activity at the CXCR3 receptors by known methods, such as, for example, development of a human CXCR3 (N-delta 4) Binding Assay.
Cloning and Expression of Human CXCR3 (N-delta 4):
The DNA encoding human CXCR3 was cloned by PCR using human genomic DNA (Promega, Madison, Wis.) as a template. The PCR primers were designed based on the published sequence of human orphan receptor GPR9 (1) with incorporated restriction sites, a Kozak consensus sequence, CD8 leader and Flag tag. The PCR product was subcloned into the mammalian expression vector pME18Sneo, a derivative of the SR-alpha expression vector (designated as pME18Sneo-hCXCR3 (N-delta 4).
IL-3-dependent mouse pro-B cells Ba/F3 were transfected by electroporation in 0.4 ml Dulbecco's PBS containing 4×10^6 cells with 20 μg of pME18Sneo-hCXCR3 (N-delta 4) plasmid DNA. Cells were pulsed at 400 Volts, 100 OHMs, […]. The transfected cells were under selection with 1 mg/ml G418 (Life Technologies, Gaithersburg, Md.). G418-resistant Ba/F3 clones were screened for CXCR3 expression by specific binding of [^125I] IP10 (NEN Life Science Products, Boston, Mass.).
Preparation of Ba/F3-hCXCR3 (N-delta 4) Membranes:
Ba/F3 cells expressing human CXCR3 (N-delta 4) were pelleted and resuspended in the lysis buffer containing 10 mM HEPES, pH 7.5 and Complete® protease inhibitors (1 tablet per 100 ml) (Boehringer Mannheim, Indianapolis, Ind.) at a cell density of 20×10^6 cells per ml. After 5 minute incubation on ice, cells were transferred to 4639 cell disruption bomb (Parr Instrument, Moline, Ill.) and applied with 1,500 psi of nitrogen for 30 minutes on ice. Large cellular debris was removed by centrifugation at 1,000×g. Cell membrane in the supernatant was sedimented at 100,000×g. The membrane was resuspended in the lysis buffer supplemented with 10% sucrose and stored at −80° C. Total protein concentration of the membrane was determined by BCA method from Pierce (Rockford, Ill.).
Human CXCR3 (N-delta 4) Scintillation Proximity Assay (SPA):
For each assay point, 2 μg of membrane was preincubated for 1 hr with 300 μg wheat germ agglutinin (WGA) coated SPA beads (Amersham, Arlington Heights, Ill.) in the binding buffer (50 mM HEPES, 1 mM CaCl2, 5 mM MgCl2, 125 mM NaCl, 0.002% NaN3, 1.0% BSA) at room temperature. The beads were spun down, washed once, resuspended in the binding buffer and transferred to a 96-well Isoplate (Wallac, Gaithersburg, Md.). 25 pM of [^125I] IP-10 with tested compounds in a series of titration were added to start the reaction. After 3 hr reaction at room temperature, the amount of [^125I] IP10 bound to the SPA beads was determined with a Wallac 1450 Microbeta counter.
On the technique in general: In a scintillation proximity assay essentially only radioactivity close to the scintillant gives light.

Where two headings read alike, the source gives them in different places.

Turning to `CC[C@H]1CN(c2nc3nc(C)n(CC)c(=O)c3nc2Cl)CCN1C1CCN(Cc2ccc(Cl)cc2F)CC1` [Compound 23], where the note is “IC50 ratings, read-out: IC50”, the IC50 lay within 0.025 to 0.1 µM.

As to `CC[C@H]1CN(c2cc3c(cc2Cl)nc(C(F)(F)F)n3C)CCN1C1CCN(Cc2ccc(Cl)cc2F)CC1` [Compound 37], the IC50 (IC50 ratings, read-out: IC50) was above 0.1 µM.

Take `CC[C@H]1CN(c2nc3[nH]c(=O)[nH]c3nc2Cl)CCN1C1CCN(C(=O)c2ccc(Cl)nc2N)CC1` [Compound 12]: the IC50 (IC50 ratings, read-out: IC50) is below 0.025 µM.

`CC[C@H]1CN(c2nc3[nH]c(=O)[nH]c3nc2Cl)CCN1C1CCN(Cc2ccc(Cl)cc2)CC1` [Compound 2]: the IC50 (IC50 ratings, read-out: IC50) is below 0.025 µM.

With `CC[C@H]1CN(c2nc3c(nc2Cl)CNC(=O)N3)CCN1C1CCN(Cc2ccc(Cl)cc2F)CC1` [Compound 4], where the note is “IC50 ratings, read-out: IC50”, the IC50 is below 0.025 µM.

Take `CC[C@H]1CN(c2nc3[nH]c(=O)[nH]c3nc2Cl)CCN1C1CCN(C(=O)c2ccc(Cl)cc2)CC1` [Compound 19]: where the note is “IC50 ratings, read-out: IC50”, the IC50 lay within 0.025 to 0.1 µM.

`CC[C@H]1CN(c2nc3ncn(CC)c(=O)c3nc2Cl)CCN1C1CCN(Cc2ccc(Cl)cc2)CC1` [Compound 20]: the IC50 (IC50 ratings, read-out: IC50) fell in the range of 0.025 to 0.1 µM.

With `CC[C@H]1CN(c2nc3[nH]c(=O)[nH]c3nc2Cl)CCN1C1CCN([C@H](CO)c2ccc(Cl)cc2)CC1` [Compound 11], where the note is “IC50 ratings, read-out: IC50”, the IC50 is below 0.025 µM.

In the case of `CC[C@H]1CN(c2nc3c(nc2Cl)C(=O)NCCNC(=O)N3)CCN1C1CCN(C(=O)c2ccc(Cl)nc2N)CC1` [Compound 34], under “IC50 ratings, read-out: IC50”, the IC50 was above 0.1 µM.

As to `CC[C@H]1CN(c2nc3[nH]c(=O)[nH]c3nc2Cl)CCN1C1CCN(Cc2ccc(Cl)cc2C#N)CC1` [Compound 13], for the setting “IC50 ratings, read-out: IC50”, the IC50 was below 0.025 µM.

For `CC[C@H]1CN(c2nc3[nH]c(=O)n(C(=O)OC(C)(C)C)c3nc2Cl)CCN1C1CCN(Cc2ccc(Cl)cc2)CC1` [Compound 8], where the note is “IC50 ratings, read-out: IC50”, the IC50 was below 0.025 µM.

On to `CC[C@H]1CN(c2nc3[nH]c(=O)[nH]c3nc2Cl)CCN1C1CCN(C(C#N)c2ccc(Cl)cc2)CC1` (mixture of isomers) [Compound 33], for which, under “IC50 ratings, read-out: IC50”, the IC50 is above 0.1 µM.

Consider `CC[C@H]1CN(c2nc3c(nc2Cl)CNC(=O)N3)CCN1C1CCN(C(=O)c2ccc(Cl)nc2N)CC1` [Compound 16], for which, under “IC50 ratings, read-out: IC50”, the IC50 is below 0.025 µM.

On to `CC[C@H]1CN(c2cc3c(cc2Cl)nc(NS(C)(=O)=O)n3S(C)(=O)=O)CCN1C1CCN(Cc2ccc(Cl)cc2F)CC1` [Compound 35], for which, where the note is “IC50 ratings, read-out: IC50”, the IC50 was above 0.1 µM.

For `CC[C@H]1CN(c2nc3[nH]c(=O)n(Cc4ccc(Cl)cc4C#N)c3nc2Cl)CCN1C1CCN(Cc2ccc(Cl)cc2C#N)CC1` [Compound 26], the IC50 (IC50 ratings, read-out: IC50) is above 0.1 µM.

As for `CC[C@H]1CN(c2nc3c(nc2Cl)C(=O)NCCN3)CCN1C1CCN(C(=O)c2ccc(Cl)nc2N)CC1` [Compound 18], the IC50 (IC50 ratings, read-out: IC50) was in the range of 0.025 to 0.1 µM.

Regarding `CC[C@H]1CN(c2nc3c(nc2Cl)CNc2c(c(=O)c2=O)N3)CCN1C1CCN(Cc2ccc(Cl)cc2F)CC1` [Compound 1], the IC50 is, setting by setting: (read-out: IC50 value) 0.0003 µM; (IC50 ratings, read-out: IC50) below 0.025 µM.

For the molecule `CC[C@H]1CN(c2cc3[nH]cnc3cc2Cl)CCN1C1CCN(Cc2ccc(Cl)cc2F)CC1` [Compound 25], the IC50 (IC50 ratings, read-out: IC50) was above 0.1 µM.

Regarding `CC[C@H]1CN(c2nc3c(nc2Cl)CN/C(=N\C#N)N3)CCN1C1CCN(Cc2ccc(Cl)cc2F)CC1` [Compound 5], where the note is “IC50 ratings, read-out: IC50”, the IC50 is below 0.025 µM.

Consider `CC[C@H]1CN(c2cc3[nH]cnc3cc2Cl)CCN1C1CCN(Cc2ccc(Cl)cc2F)CC1` [Compound 24], for which the IC50 (IC50 ratings, read-out: IC50) lay in the range of 0.025 to 0.1 µM.

With `CCc1nc2nc(N3CCN(C4CCN(Cc5ccc(Cl)cc5F)CC4)[C@@H](CC)C3)c(Cl)nc2c(=O)n1CC` [Compound 15], the IC50 (IC50 ratings, read-out: IC50) is below 0.025 µM.

Turning to `CC[C@H]1CN(c2cc3[nH]c(-c4ccccc4)nc3cc2Cl)CCN1C1CCN(Cc2ccc(Cl)cc2F)CC1` [Compound 32], for the setting “IC50 ratings, read-out: IC50”, the IC50 was above 0.1 µM.

`CCc1nc2nc(N3CCN(C4CCN(Cc5ccc(Cl)cc5F)CC4)[C@@H](CC)C3)c(O)nc2c(=O)n1CC` [Compound 38]: the IC50 (IC50 ratings, read-out: IC50) is above 0.1 µM.

For `CC[C@H]1CN(c2cc3[nH]c(=O)c(=O)[nH]c3cc2Cl)CCN1C1CCN(Cc2ccc(Cl)cc2F)CC1` [Compound 29], the concentration for half-maximal inhibition (IC50) (IC50 ratings, read-out: IC50) was above 0.1 µM.

Turning to `CC[C@H]1CN(c2nc3[nH]c(=O)[nH]c3nc2Cl)CCN1C1CCN([C@H](C(=O)OC)c2ccc(Cl)cc2)CC1` [Compound 30], the IC50 (IC50 ratings, read-out: IC50) is above 0.1 µM.

Take `CC[C@H]1CN(c2cc3[nH]c(=O)[nH]c3cc2Cl)CCN1C1CCN(Cc2ccc(Cl)cc2F)CC1` [Compound 21]: the IC50 (IC50 ratings, read-out: IC50) was in the range of 0.025 to 0.1 µM.

Regarding `CC[C@H]1CN(c2cc3[nH]c(C(F)(F)F)nc3cc2Cl)CCN1C1CCN(Cc2ccc(Cl)cc2F)CC1` [Compound 9], for the setting “IC50 ratings, read-out: IC50”, the IC50 was below 0.025 µM.

As to `CC[C@H]1CN(c2cc3[nH]c(=S)[nH]c3cc2Cl)CCN1C1CCN(Cc2ccc(Cl)cc2F)CC1` [Compound 28], the IC50 (IC50 ratings, read-out: IC50) is above 0.1 µM.

`CC[C@H]1CN(c2nc3c(nc2Cl)[nH]c(=O)n3Cc2ccc(Cl)cc2C#N)CCN1C1CCN(Cc2ccc(Cl)cc2C#N)CC1` [Compound 22]: the IC50 (IC50 ratings, read-out: IC50) fell in the range of 0.025 to 0.1 µM.

In the case of `CC[C@H]1CN(c2nc3[nH]c(=O)n(C)c(=O)c3nc2Cl)CCN1C1CCN(Cc2ccc(Cl)cc2)CC1` [Compound 7], the IC50 (IC50 ratings, read-out: IC50) was below 0.025 µM.

On to `CC[C@H]1CN(c2nc3[nH]c(=O)[nH]c3nc2Cl)CCN1C1CCN([C@@H](CO)c2ccc(Cl)cc2)CC1` [Compound 3], for which the IC50 (IC50 ratings, read-out: IC50) is below 0.025 µM.

Consider `CCNC(=O)n1cnc2cc(Cl)c(N3CCN(C4CCN(Cc5ccc(Cl)cc5F)CC4)[C@@H](CC)C3)cc21` [Compound 31], for which the IC50 (IC50 ratings, read-out: IC50) was above 0.1 µM.

`CC[C@H]1CN(c2nc3[nH]c(=O)[nH]c3nc2Cl)CCN1C1CCN(Cc2ccc(Cl)cc2F)CC1` [Compound 6]: the IC50 (IC50 ratings, read-out: IC50) is below 0.025 µM.

Turning to `CC[C@H]1CN(c2nc3[nH]c(=O)[nH]c3nc2Cl)CCN1C1CCN(Cc2ccc(-n3cccn3)cc2)CC1` [Compound 17], the IC50 (IC50 ratings, read-out: IC50) is below 0.025 µM.
